Results on 20 compounds are retold here after ChEMBL document CHEMBL3853261 (Medchemcomm, 2016).

Values after ≈ are worked out from the molar mass of the structure shown. Active and inactive are the calls of the source.

The subject of data set [1] is Mycobacterium tuberculosis. Briefly: Antibacterial activity against Mycobacterium tuberculosis MTCC 300 after 7 days by resazurin microtiter assay. The class given is functional. Conditions: for MIC: MTCC 300, 168 h. (Alamar Blue is a resazurin reagent that responds to reducing activity.)
Data set [2] is described as follows: Hemolytic activity in human erythrocytes after 1 hr. Type of data set: ADME, cell-based, Erythrocyte. Conditions: read-out: Activity.

Turning to `NC(=S)N/N=C1\CSC(n2nc(-c3cn(-c4ccccc4)nc3-c3ccc(Cl)cc3)c(O)c2-c2ccccc2)=N1`, the “growth inhibition (GI)” value in data set [1] was “Active”. Further, in data set [2], the hemolysis at 1 h was less than 5%.
`NC(=S)N/N=C1\CSC(n2nc(-c3cn(-c4ccccc4)nc3-c3cccc([N+](=O)[O-])c3)c(O)c2-c2ccc(Cl)cc2)=N1`: 62.5 µg/mL (≈ 99.2 µM) was the least that counted as inhibitory in data set [1] (MIC). Besides, in data set [2], the hemolysis at 1 h is less than 5%.
On to `NNC(=O)c1ccncc1` [ISONIAZID], for which, in data set [1], the MIC (in general, the smallest concentration in the dilution series that meets the test's criterion for growth inhibition) was found to be 0.48 µg/mL (≈ 3.5 µM).
As for `NC(=S)N/N=C1\CSC(n2nc(-c3cn(-c4ccccc4)nc3-c3ccccc3)c(O)c2-c2ccccc2)=N1`, the “growth inhibition (GI)” value in data set [1] is “Active”. The hemolysis at 1 h in data set [2] is less than 5%.
Take `NC(=S)N/N=C1\CSC(n2nc(-c3cn(-c4ccccc4)nc3-c3ccc(Br)cc3)c(O)c2-c2ccc(F)cc2)=N1`: in data set [2], the hemolysis at 1 h was less than 5%.
Take `NC(=S)N/N=C1\CSC(n2nc(-c3cn(-c4ccccc4)nc3-c3ccc([N+](=O)[O-])cc3)c(O)c2-c2ccc(F)cc2)=N1`: the “growth inhibition (GI)” value in data set [1] is “Active”. In addition, the hemolysis at 1 h in data set [2] was less than 5%.
As to `NC(=S)N/N=C1\CSC(n2nc(-c3cn(-c4ccccc4)nc3-c3cccc([N+](=O)[O-])c3)c(O)c2-c2ccc(F)cc2)=N1`, in data set [2], the hemolysis at 1 h was less than 5%.
In the case of `NC(=S)N/N=C1\CSC(n2nc(-c3cn(-c4ccccc4)nc3-c3ccc([N+](=O)[O-])cc3)c(O)c2-c2ccc(Cl)cc2)=N1`, the “growth inhibition (GI)” value in data set [1] is “Active”. Moreover, the hemolysis at 1 h in data set [2] is less than 5%.
`NC(=S)N/N=C1\CSC(n2nc(-c3cn(-c4ccccc4)nc3-c3ccc(Br)cc3)c(O)c2-c2cccc([N+](=O)[O-])c2)=N1`: the hemolysis at 1 h in data set [2] is less than 5%.
In data set [1], `NC(=S)N/N=C1\CSC(n2nc(-c3cn(-c4ccccc4)nc3-c3ccc([N+](=O)[O-])cc3)c(O)c2-c2ccc([N+](=O)[O-])cc2)=N1` had an MIC of 62.5 µg/mL (≈ 97.6 µM). The hemolysis at 1 h in data set [2] is less than 5%.
The matching figures for `NC(=S)N/N=C1\CSC(n2nc(-c3cn(-c4ccccc4)nc3-c3cccc([N+](=O)[O-])c3)c(O)c2-c2ccc([N+](=O)[O-])cc2)=N1`: 3.9 µg/mL (≈ 6.09 µM) and less than 5%.
Turning to `NC(=S)N/N=C1\CSC(n2nc(-c3cn(-c4ccccc4)nc3-c3ccc(Br)cc3)c(O)c2-c2ccc(Cl)cc2)=N1`, the hemolysis at 1 h in data set [2] is less than 5%.
Still for that read-out and setting: the value for `NC(=S)N/N=C1\CSC(n2nc(-c3cn(-c4ccccc4)nc3-c3ccc(Br)cc3)c(O)c2-c2ccc([N+](=O)[O-])cc2)=N1` was less than 5%.
Consider `CO[C@H]1/C=C/O[C@@]2(C)Oc3c(C)c(O)c4c(O)c(c(/C=N/N5CCN(C)CC5)c(O)c4c3C2=O)NC(=O)/C(C)=C\C=C\[C@H](C)[C@H](O)[C@@H](C)[C@@H](O)[C@@H](C)[C@H](OC(C)=O)[C@@H]1C` [RIFAMPIN], for which the MIC in data set [1] came out at 0.24 µg/mL (≈ 0.292 µM).
For the compound `NC(=S)N/N=C1\CSC(n2nc(-c3cn(-c4ccccc4)nc3-c3ccc(Cl)cc3)c(O)c2-c2ccc(F)cc2)=N1`, in data set [1], the “growth inhibition (GI)” value is “Active”. In data set [2], the hemolysis at 1 h is less than 5%.
For `NC(=S)N/N=C1\CSC(n2nc(-c3cn(-c4ccccc4)nc3-c3ccc(Br)cc3)c(O)c2-c2ccc(Br)cc2)=N1`, in data set [2], the hemolysis at 1 h is less than 5%.
In turn, `NC(=S)N/N=C1\CSC(n2nc(-c3cn(-c4ccccc4)nc3-c3ccc([N+](=O)[O-])cc3)c(O)c2-c2cccc([N+](=O)[O-])c2)=N1` showed an MIC in data set [1] of 7.81 µg/mL (≈ 12.2 µM). The hemolysis at 1 h in data set [2] is less than 5%.
For `NC(=S)N/N=C1\CSC(n2nc(-c3cn(-c4ccccc4)nc3-c3cccc([N+](=O)[O-])c3)c(O)c2-c2cccc([N+](=O)[O-])c2)=N1` the same measures were 3.9 µg/mL (≈ 6.09 µM) and less than 5%.
With `NC(=S)N/N=C1\CSC(n2nc(-c3cn(-c4ccccc4)nc3-c3ccc(Cl)cc3)c(O)c2-c2ccc([N+](=O)[O-])cc2)=N1`, the “growth inhibition (GI)” value in data set [1] was “Active”. In addition, the hemolysis at 1 h in data set [2] is less than 5%.
In data set [1], `NC(=S)N/N=C1\CSC(n2nc(-c3cn(-c4ccccc4)nc3-c3ccc(Cl)cc3)c(O)c2-c2ccc(Cl)cc2)=N1` displayed an MIC of 62.5 µg/mL (≈ 101 µM). For the same compound, the hemolysis at 1 h in data set [2] is less than 5%.
